BindingDB's records for PubMed 3139864 (Vanderbilt University, 1988)

biological target: T1, 5-hydroxytryptamine receptor 2C (Rattus norvegicus, UniProt P08909)
T1 sequence (P08909 whole entry): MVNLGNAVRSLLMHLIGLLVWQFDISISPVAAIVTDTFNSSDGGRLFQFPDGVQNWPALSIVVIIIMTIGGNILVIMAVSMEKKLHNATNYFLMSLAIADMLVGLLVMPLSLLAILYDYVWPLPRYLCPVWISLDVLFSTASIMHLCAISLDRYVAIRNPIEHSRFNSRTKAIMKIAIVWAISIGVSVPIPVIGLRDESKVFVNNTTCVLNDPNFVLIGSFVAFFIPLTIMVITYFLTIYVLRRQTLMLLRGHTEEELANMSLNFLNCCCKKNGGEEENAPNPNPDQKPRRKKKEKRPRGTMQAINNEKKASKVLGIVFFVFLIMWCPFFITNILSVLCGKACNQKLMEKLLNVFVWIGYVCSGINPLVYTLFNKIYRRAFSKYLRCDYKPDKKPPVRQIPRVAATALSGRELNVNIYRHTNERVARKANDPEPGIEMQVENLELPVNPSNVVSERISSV

| Ki [nM] | SMILES |
| --- | --- |
| 100 | CN(C)CCCN1c2ccccc2CCc2ccccc21 |
| 30 | O=C(c1ccc(F)cc1)C1CCN(CCn2c(=O)[nH]c3ccccc3c2=O)CC1 [3-(2-{4-[(4-fluorophenyl)carbonyl]piperidin-1-yl}ethyl)-1,2,3,4-tetrahydroquinazoline-2,4-dione] |
| > 10000 | CC1(C)CC(=O)N(CCCCN2CCN(c3ncccn3)CC2)C(=O)C1 [4,4-Dimethyl-1-[4-(4-pyrimidin-2-yl-piperazin-1-yl)-butyl]-piperidine-2,6-dione] |
| 3120 | CN(C)CCC(c1ccc(Cl)cc1)c1ccccn1 (centres undefined) [clorfeniramina] |
